Data on 21 compounds can be found in article PMC6925341 (SLAS discovery : advancing life sciences R & D, 2019).

In data set [1] the test system is 293FT cells. The experiment in a line: cells. As to conditions: for IC50: read-out: 293FT Cell Viability IC50; for cell viability IC50: control validation, known inhibitor. It is filed as cell-based, Human.
Data set [2] relates to HPV16-PsV. Put plainly: organism not typed. In kind it is cell-based, HPV-16. As to conditions: for IC50: read-out: HPV Infection IC50; for reduction of HPV-16PsV infection, fold change compared with the control of cells only: 30 μM, secondary stock.
The nature of data set [3]: in vitro. It is filed as cell-based, Human. As to conditions: human.
Data set [4] concerns SV40 promoter. Put plainly: SV40 promoter transfection in 293FT cells. As to conditions: 30.0 μM, vs SV40 with no drug; data not shown. In kind it is cell-based.

Where two headings read alike, the source gives them in different places.

The term IC50 denotes the concentration needed to halve the response being measured. As to `COc1cc(NS(C)(=O)=O)ccc1Nc1c2ccccc2nc2ccccc12` [Amsacrine], the IC50 was 1 µM in data set [1] (Homo sapiens) and 0.01 µM in data set [2] (72 h).
For `N=c1ccn2c(n1)O[C@H]1[C@H](O)[C@@H](CO)O[C@H]12` [Ancitabine], the IC50 in data set [1] (Homo sapiens) is 5 µM; in data set [2] (72 h) it was below 0.007 µM.
The corresponding values for `O=[N+]([O-])C(Br)(CO)CO` [Bronopol] are 7 µM and 3 µM.
On to `Cc1cc(C2CCCCC2)n(O)c(=O)c1` [Ciclopirox], for which the half-inhibitory concentration (IC50) was found to be 8 µM in data set [1] (Homo sapiens) and 2 µM in data set [2] (72 h).
`Nc1nc(Cl)nc2c1ncn2[C@H]1C[C@H](O)[C@@H](CO)O1` [Cladribine]: the IC50 in data set [1] (Homo sapiens) is 4 µM.
For `Nc1nc(Cl)nc2c1ncn2[C@@H]1O[C@H](CO)[C@@H](O)[C@@H]1F` [Clofarabine], the IC50 in data set [1] (Homo sapiens) was 2 µM.
With `C[C@H]1O[C@@H](n2cc(F)c(=O)[nH]c2=O)[C@H](O)[C@@H]1O` [Doxifluridine], the IC50 in data set [1] (Homo sapiens) stood at 16 µM; in data set [2] (72 h), 5 µM.
As to `COc1cc([C@@H]2c3cc4c(cc3[C@@H](O[C@@H]3O[C@@H]5CO[C@@H](C)O[C@H]5[C@H](O)[C@H]3O)[C@H]3COC(=O)[C@H]23)OCO4)cc(OC)c1O` [Etoposide], the IC50 in data set [1] (Homo sapiens) is 1 µM; in data set [2] (72 h), 0.01 µM.
On to `O=c1[nH]c(=O)n([C@H]2C[C@H](O)[C@@H](CO)O2)cc1F` [Floxuridine], for which the IC50 in data set [2] (72 h) is below 0.007 µM.
Take `O=c1[nH]c(=O)n([C@H]2C[C@H](O)[C@@H](CO)O2)cc1F` [Fluorodeoxyuridine]: the results for the IC50 in data set [1] and in data set [2] were 13 µM and 4 µM, respectively.
Consider `O=c1[nH]cc(F)c(=O)[nH]1` [Fluorouracil], for which the IC50 came to 13 µM in data set [1] (Homo sapiens) and 1 µM in data set [2] (72 h).
The like results for `CNCCC=C1c2ccccc2CCc2ccccc21` [Nortriptyline] were, in that order, above 15 µM and 6 µM.
Regarding `Cc1nccn1CC1CCc2c(c3ccccc3n2C)C1=O` (centres unmarked) [Ondansetron], the IC50 in data set [2] (72 h) amounted to 5 µM.
As to `O=C1[O][Pt]2([NH][C@@H]3CCCC[C@H]3[NH]2)[O]C1=O` [Oxaliplatin], the IC50 is 8 µM in data set [1] and 1 µM in data set [2].
For orientation: viability means the share of living cells, or the viability signal relative to a control. The low end stands for a greater loss of cells, the high end for better survival. `N=C(N)c1ccc(OCCCCCOc2ccc(C(=N)N)cc2)cc1` [Pentamidine] came in with a viability at 30 µM in data set [3] above 95%. Further, the IC50 in data set [1] (Homo sapiens) was determined as 9 µM; in data set [2] (72 h) it was 2 µM. In data set [1] (human), this compound yielded a cellular cytotoxicity below 10.0%. In data set [2], the “reduction of HPV-16PsV infection, fold change compared with the control of cells only” value is given as “twofold”. In addition, the “effect on SV40 promoter activity” value in data set [4] is listed as “did not significantly affect”.
Take `CC[C@@]1(O)C(=O)OCc2c1cc1n(c2=O)Cc2cc3c([N+](=O)[O-])cccc3nc2-1` [Rubitecan]: the IC50 in data set [2] (72 h) stood at 0.8 µM.
Take `O=C1C=C2C=C[C@@H]3C[C@@]2(O1)[C@H]1CCCCN31` [Securinine]: in data set [3], the viability at 30 µM was above 95%. Also, the IC50 was 4 µM in data set [1] (Homo sapiens) and 2 µM in data set [2] (72 h). The compound also yielded a cellular cytotoxicity in data set [1] (lead drugs, triplicate) below 10.0%. The “reduction of HPV-16PsV infection, fold change compared with the control of cells only” value in data set [2] was 1.5 fold. In data set [4], the “effect on SV40 promoter activity” value is listed as “did not significantly affect”.
For `Cc1cc2nc3ccc(N(C)C)cc3[s+]c2cc1N` [Tolonium chloride], the IC50 was 4 µM in data set [1] (Homo sapiens) and 2 µM in data set [2] (72 h).
As for Bleomycin, the IC50 in data set [1] is 2 µM; in data set [2], below 0.007 µM.
Turning to Carrageenan, the “cell viability IC50” value in data set [1] is at least 2 µg/mL.
Regarding heparin, the “cell viability IC50” value in data set [1] was found to be 83.0 µg/mL. In addition, the “inhibition of HPV 16-PsV infection IC50” value in data set [2] (control validation, known inhibitor) amounted to 24 µg/mL.
